# Measured values: publication PMC10390652 (Inorganic chemistry, 2023)
# Assay: Biodistribution in healthy mice
# Assay type: in vivo, female Balb/c mice
# Details: in saline
structure (smiles),measurement,setting,value
[47Sc+3].[Cl-].[Cl-].[Cl-] [free ^47Sc],biodistribution pattern at 1 hour,n=4,"more widespread uptake within heart, lungs, spleen, kidney, and femur"
same,biodistribution pattern at 1 hour,"n=4, listed as [^47Sc]ScCl3","widespread biodistribution with uptake seen in heart, spleen and kidneys along with the liver, and intestines"
